Test results: ChEMBL document CHEMBL1201862, “PubChem BioAssay data set” (2004)
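Growth conditions: 96-well plates. Treatment: test compound, 48 hours, 5 concentrations. Analysis: linear interpolation between bracketing concentrations; unreached endpoints set to highest concentration. Here, GI50 denotes the concentration required for 50% inhibition of growth.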 Activity calls are given as the source filed them. Cut-off read from the data, not from the text of the source: active = GI50 up to about 1.1 µM and inactive = higher.

Experiments:
Assay in all cases: growth of human tumour cells (NCI), 48 h
786-0 = test system: 786-0
ACHN = test system: ACHN
CCRF-CEM = test system: CCRF-CEM
HCT-116 = test system: HCT-116
HL-60 = test system: HL-60
HOP-62 = test system: HOP-62
HOP-92 = test system: HOP-92
HT-29 = test system: HT-29
M14 = test system: M14
Malme-3M = test system: Malme-3M
SF-539 = test system: SF-539
SK-MEL-2 = test system: SK-MEL-2
SK-MEL-5 = test system: SK-MEL-5
SN12C = test system: SN12C
SNB-19 = test system: SNB-19
TK-10 = test system: TK-10
CAKI-1 = test system: CAKI-1

Measured: GI50

N#Cc1cccc(N2C(=O)c3c(c(-c4ccccc4)c(-c4ccc(Sc5ccc(-c6c(-c7ccccc7)c7c(c(-c8ccccc8)c6-c6ccccc6)C(=O)N(c6cccc(C#N)c6)C7=O)cc5)cc4)c(-c4ccccc4)c3-c3ccccc3)C2=O)c1
inactive: 786-0 > 100 µM | ACHN > 100 µM | CCRF-CEM > 100 µM | HCT-116 65.2 µM | HL-60 > 100 µM | HOP-62 89.3 µM | HOP-92 3.92 µM | HT-29 > 100 µM | M14 > 100 µM | Malme-3M > 100 µM | SF-539 65.2 µM | SK-MEL-2 > 100 µM | SK-MEL-5 77.6 µM | SN12C 23.9 µM | SNB-19 29.3 µM | TK-10 51.8 µM

NC1=NC(Cn2nc(-c3ccccc3)c3ccccc3c2=O)=NNC(=O)N1
inactive: 786-0 > 100 µM | ACHN > 100 µM | CAKI-1 > 100 µM | CCRF-CEM > 100 µM | HCT-116 > 100 µM | HOP-62 > 100 µM | HOP-92 > 100 µM | HT-29 > 100 µM | M14 > 100 µM | Malme-3M > 100 µM | SF-539 > 100 µM | SK-MEL-2 > 100 µM | SK-MEL-5 > 100 µM | SN12C > 100 µM | SNB-19 > 100 µM | TK-10 > 100 µM

Cc1ccc(N2C[N+](c3ccccc3)=NC(c3ccccc3)=N2)cc1
inactive: 786-0 68.9 µM | ACHN 32.7 µM | CCRF-CEM 19.6 µM | HCT-116 35.4 µM | HL-60 33.6 µM | HOP-62 > 100 µM | HT-29 39.3 µM | Malme-3M 43.6 µM | SK-MEL-5 23.9 µM | SN12C 62.2 µM | SNB-19 39.2 µM | TK-10 > 100 µM

c1csc(C[N+]23CN4CN(CN(C4)C2)C3)c1
inactive: 786-0 22.6 µM | ACHN 37.5 µM | CAKI-1 25.8 µM | CCRF-CEM 18.3 µM | HCT-116 > 100 µM | HL-60 14.7 µM | HOP-62 21.4 µM | HOP-92 22.7 µM | HT-29 > 100 µM | M14 17 µM | Malme-3M 18.3 µM | SF-539 > 100 µM | SK-MEL-2 19.7 µM | SK-MEL-5 19.3 µM | SNB-19 > 100 µM | TK-10 26.4 µM

COCC12CC(CC1=O)C1C2ON2c3ccccc3C(=O)C12c1ccccc1 (stereo unspecified)
inactive: 786-0 > 100 µM | ACHN > 100 µM | CCRF-CEM 61.2 µM | HCT-116 > 100 µM | HL-60 76.4 µM | HOP-62 > 100 µM | HOP-92 > 100 µM | HT-29 > 100 µM | M14 > 100 µM | Malme-3M > 100 µM | SF-539 > 100 µM | SK-MEL-5 > 100 µM | SN12C > 100 µM | SNB-19 > 100 µM

Cc1c(Cl)cccc1NC(=O)C(=O)C1C(=O)NC(=O)NC1=O
inactive: 786-0 > 100 µM | ACHN > 100 µM | CAKI-1 > 100 µM | CCRF-CEM > 100 µM | HCT-116 > 100 µM | HL-60 > 100 µM | HOP-62 > 100 µM | HOP-92 > 100 µM | HT-29 > 100 µM | M14 > 100 µM | Malme-3M > 100 µM | SF-539 > 100 µM | SK-MEL-2 > 100 µM | SK-MEL-5 > 100 µM | SN12C > 100 µM | SNB-19 > 100 µM | TK-10 > 100 µM

COCCNC(=O)C1C(=O)N(CCOC)C(=O)/C1=N/N (stereo unspecified)
inactive: 786-0 > 100 µM | ACHN > 100 µM | CAKI-1 > 100 µM | CCRF-CEM > 100 µM | HCT-116 > 100 µM | HL-60 > 100 µM | HOP-92 > 100 µM | HT-29 > 100 µM | M14 > 100 µM | Malme-3M > 100 µM | SF-539 > 100 µM | SK-MEL-2 > 100 µM | SN12C > 100 µM | SNB-19 > 100 µM | TK-10 > 100 µM

CSc1ccc(NC(=O)C2c3[nH]c4ccccc4c3C3CCC(C(C)(C)C)CC3C2C(=O)O)cc1 (stereo unspecified)
inactive: 786-0 17.5 µM | ACHN 15.3 µM | CCRF-CEM 10.7 µM | HCT-116 14.4 µM | HL-60 9.42 µM | HOP-62 16.9 µM | HOP-92 23.2 µM | HT-29 16.5 µM | M14 18.4 µM | Malme-3M 20.9 µM | SF-539 19.7 µM | SK-MEL-5 21.1 µM | SN12C 18.6 µM | SNB-19 30.5 µM

O=C1C[C@@H]2CCCC[C@@H]2C12SCCS2
inactive: 786-0 > 100 µM | ACHN > 100 µM | CAKI-1 > 100 µM | CCRF-CEM > 100 µM | HCT-116 > 100 µM | HL-60 80 µM | HOP-62 > 100 µM | Malme-3M > 100 µM | SF-539 > 100 µM | SK-MEL-2 > 100 µM | SK-MEL-5 92.5 µM | SN12C > 100 µM | SNB-19 > 100 µM | TK-10 > 100 µM

CC(C)=CCC/C(=C/CC/C(C)=C/CCc1ccoc1)C(=O)O
inactive: 786-0 > 100 µM | ACHN > 100 µM | CCRF-CEM > 100 µM | HCT-116 > 100 µM | HOP-62 > 100 µM | HOP-92 > 100 µM | HT-29 > 100 µM | M14 > 100 µM | Malme-3M > 100 µM | SF-539 > 100 µM | SK-MEL-2 > 100 µM | SK-MEL-5 > 100 µM | SN12C > 100 µM | SNB-19 > 100 µM

CN1CCC(CN2c3ccccc3Sc3ccccc32)CC1
inactive: 786-0 14.3 µM | ACHN 16 µM | CAKI-1 4.93 µM | CCRF-CEM 16.3 µM | HCT-116 12.6 µM | HL-60 13 µM | HOP-62 18 µM | HOP-92 5.69 µM | HT-29 12.7 µM | M14 13 µM | SF-539 14.9 µM | SK-MEL-2 17.1 µM | SK-MEL-5 7.19 µM | SN12C 19.1 µM | SNB-19 15.7 µM | TK-10 15.7 µM

CC1(C)CC(=O)C(C(=O)C(=O)NC2=C(Cl)C(=O)c3ccccc3C2=O)C(=O)C1
inactive: 786-0 > 100 µM | ACHN 91.4 µM | CAKI-1 71.8 µM | CCRF-CEM 36 µM | HCT-116 > 100 µM | HL-60 20.1 µM | HOP-62 > 100 µM | HT-29 80.7 µM | M14 > 100 µM | Malme-3M > 100 µM | SF-539 > 100 µM | SK-MEL-2 > 100 µM | SK-MEL-5 73.8 µM | SN12C 73.6 µM | SNB-19 > 100 µM | TK-10 > 100 µM

Cc1nc(Nc2ccc([N+](=O)[O-])cc2)sc1C(=O)/C=C/c1ccc(N(C)C)cc1
inactive: 786-0 > 100 µM | ACHN 48.3 µM | CAKI-1 > 100 µM | CCRF-CEM 60.1 µM | HL-60 76.7 µM | HOP-62 > 100 µM | HOP-92 > 100 µM | HT-29 > 100 µM | Malme-3M > 100 µM | SF-539 88.9 µM | SK-MEL-2 64.3 µM | SK-MEL-5 50.5 µM | SN12C > 100 µM | SNB-19 > 100 µM | TK-10 77.4 µM

COc1cccc2c1C(=O)C1(O)CCCCC21 (stereo unspecified)
inactive: 786-0 > 100 µM | ACHN > 100 µM | CAKI-1 > 100 µM | CCRF-CEM > 100 µM | HCT-116 > 100 µM | HL-60 > 100 µM | HOP-62 > 100 µM | HT-29 > 100 µM | M14 > 100 µM | Malme-3M > 100 µM | SF-539 > 100 µM | SK-MEL-2 > 100 µM | SK-MEL-5 > 100 µM | SN12C > 100 µM | SNB-19 > 100 µM | TK-10 > 100 µM

CCSc1c2ccccc2c(-c2nc(F)nc(F)n2)n1CCc1ccccc1
inactive: 786-0 > 100 µM | ACHN > 100 µM | CAKI-1 > 100 µM | CCRF-CEM 36.2 µM | HCT-116 > 100 µM | HL-60 > 100 µM | HOP-62 > 100 µM | HOP-92 > 100 µM | HT-29 > 100 µM | M14 > 100 µM | Malme-3M > 100 µM | SF-539 > 100 µM | SK-MEL-2 > 100 µM | SN12C > 100 µM | SNB-19 > 100 µM | TK-10 > 100 µM

CC(C)c1ccc2c(c1)CCC1C(C)(C)[C@@H](O)CC[C@]21C (stereo partly specified)
inactive: 786-0 22.5 µM | ACHN 47.4 µM | CAKI-1 50.1 µM | CCRF-CEM 27.9 µM | HCT-116 18.5 µM | HL-60 17.7 µM | HOP-62 19.3 µM | HOP-92 23.5 µM | HT-29 16.3 µM | M14 27.9 µM | Malme-3M 17 µM | SF-539 22.3 µM | SK-MEL-5 17.3 µM | SN12C 20.9 µM | SNB-19 52.4 µM | TK-10 54 µM

COC1C2C[C@@H](O)CCC2C(C(=O)OCCl)C[C@H]1O (stereo partly specified)
inactive: 786-0 > 100 µM | ACHN > 100 µM | CAKI-1 > 100 µM | CCRF-CEM > 100 µM | HCT-116 > 100 µM | HL-60 > 100 µM | HOP-62 > 100 µM | M14 > 100 µM | Malme-3M > 100 µM | SF-539 > 100 µM | SK-MEL-2 > 100 µM | SK-MEL-5 > 100 µM | SN12C > 100 µM | SNB-19 > 100 µM | TK-10 > 100 µM

CCOC(=O)N1CCC(=O)C[C@@H]1C/C=C/P1(=O)O[C@H](c2ccccc2)C(C)N1C(C)C (stereo partly specified)
inactive: 786-0 > 100 µM | ACHN > 100 µM | CAKI-1 > 100 µM | HCT-116 > 100 µM | HOP-92 > 100 µM | HT-29 > 100 µM | Malme-3M > 100 µM | SF-539 > 100 µM | SK-MEL-2 > 100 µM | SK-MEL-5 > 100 µM | SN12C > 100 µM | SNB-19 > 100 µM | TK-10 > 100 µM
